{"source": "patent US9757380B2", "about": "(Southern Research Institute, priority 2007, dated 2017)", "format_in_all_cases": "in vivo, mice", "key": {"HCT-116 (colon)": {"tested_on": "HCT-116 (colon)", "assay": "HCT-116 colon xenograph model, clofarabine combined with radiation", "details": "clofarabine 30mg/kg/dose, ip, d. 13-24, radiation 2 Gy", "from_the_text": "(§1) Xenograph models including DU-145 (prostate), NCI-H460 NSCL (lung), SF-295 CNS (glioblastoma), SR475HN (head and neck), PANC-1 (pancreatic), and HCT-116 (colon) are employed to study the effect of compounds according to the instant disclosure combined with radiation therapy. Mice are implanted with tumor fragments subcutaneously from an in vivo passage and the tumors are allowed to grow. Mice with tumors in a designated size range are selected for the studies."}, "[1]": {"tested_on": "SF-295 CNS (glioblastoma)", "assay": "SF-295 CNS glioblastoma xenograph model, clofarabine combined with radiation", "details": "clofarabine 30 mg/kg/dose, ip, d. 8-17, radiation 3 Gy, d. 8, 11, 14, 17", "from_the_text": "as §1"}, "SR475HN (head and neck)": {"tested_on": "SR475HN (head and neck)", "assay": "SR475HN head and neck xenograph model, clofarabine combined with radiation", "details": "SR475 head & neck, clofarabine 30 mg/kg/dose, ip, d. 19-30, radiation 2 Gy, d. 19-23, 26-30", "from_the_text": "as §1"}, "DU-145 (prostate)": {"tested_on": "DU-145 (prostate)", "assay": "DU-145 prostate xenograph model, clofarabine combined with radiation", "details": "clofarabine 30 mg/kg/dose, ip, d. 13-24, radiation 2 Gy", "from_the_text": "as §1"}, "PANC-1 (pancreatic)": {"tested_on": "PANC-1 (pancreatic)", "assay": "PANC-1 pancreatic xenograph model, clofarabine combined with radiation", "details": "clofarabine 30 mg/kg/dose, ip, d. 12-23, radiation 2 Gy", "from_the_text": "as §1"}, "NCI-H460 NSCL (lung)": {"tested_on": "NCI-H460 NSCL (lung)", "assay": "NCI-H460 NSCL lung xenograph model, clofarabine combined with radiation", "details": "clofarabine 30 mg/kg/dose, ip, d. 8-17, radiation 3 Gy", "from_the_text": "as §1"}, "tumor models": {"tested_on": "tumor models", "assay": "Xenograph models combined with radiation therapy (overall statement)", "details": "compared with clofarabine", "from_the_text": "as §1"}}, "data": [{"compound": "Nc1nc(Cl)nc2c1ncn2[C@@H]1O[C@H](CO)[C@@H](O)[C@@H]1F", "note": "[Clofarabine]", "values": [{"measurement": "Tumor-Free Survivors/Total", "setting": "HCT-116 (colon); d. 13-17, 20-24", "value": "0/6"}, {"measurement": "Growth Delay (T-C, days)", "setting": "HCT-116 (colon); d. 13-17, 20-24, based on 3 tumor doublings", "value": 24.2, "unit": "days"}, {"measurement": "Growth Delay (T-C, days)", "setting": "[1]", "value": -0.8, "unit": "days"}, {"measurement": "Tumor-Free Survivors/Total", "setting": "[1]", "value": "0/6"}, {"measurement": "Tumor-Free Survivors/Total", "setting": "SR475HN (head and neck)", "value": "0/6"}, {"measurement": "Growth Delay (T-C, days)", "setting": "SR475HN (head and neck); based on 2 tumor doublings", "value": 18.2, "unit": "days"}, {"measurement": "Tumor-Free Survivors/Total", "setting": "DU-145 (prostate); d. 13-17, 20-24", "value": "0/6"}, {"measurement": "Growth Delay (T-C, days)", "setting": "DU-145 (prostate); d. 13-17, 20-24, combination: clofarabine first, radiation 1 hour later", "value": 4.3, "unit": "days"}, {"measurement": "Tumor-Free Survivors/Total", "setting": "PANC-1 (pancreatic); d. 12-16, 19-23", "value": "0/6"}, {"measurement": "Growth Delay (T-C, days)", "setting": "PANC-1 (pancreatic); d. 12-16, 19-23, based on 2 tumor doublings", "value": 17.2, "unit": "days"}, {"measurement": "Tumor-Free Survivors/Total", "setting": "NCI-H460 NSCL (lung); d. 8, 11, 14, 17", "value": "0/6"}, {"measurement": "Growth Delay (T-C, days)", "setting": "NCI-H460 NSCL (lung); d. 8, 11, 14, 17, based on time to 3 tumor doublings", "value": 4.6, "unit": "days"}]}, {"compound": "Nc1ccn([C@@H]2O[C@H](CO)[C@@H](O)C2(F)F)c(=O)n1", "note": "[gemcitabine]", "values": [{"measurement": "radiosensitizing capacity", "setting": "tumor models", "value": "tracked with the clofarabine results"}]}]}
